Results published in ChEMBL document CHEMBL4002601, “A triple exon-skipping luciferase reporter assay identifies a new CLK inhibitor pharmacophore” (Bioorg Med Chem Lett, 2017).
Calls of active or inactive are those of the source. The rule behind the calls is not given here.

Key:
[1] = molecular target: T1, Dual specificity protein kinase CLK1 (Homo sapiens, UniProt P49759); test: Inhibition of CLK mediated SF3B1 activation in human SK-MEL-2 cells assessed as MDM2-pre mRNA exon skipping after 4 hrs by luciferase reporter gene assay relative to control; assay type: cell-based
Target sequence in this assay (P49759 whole entry): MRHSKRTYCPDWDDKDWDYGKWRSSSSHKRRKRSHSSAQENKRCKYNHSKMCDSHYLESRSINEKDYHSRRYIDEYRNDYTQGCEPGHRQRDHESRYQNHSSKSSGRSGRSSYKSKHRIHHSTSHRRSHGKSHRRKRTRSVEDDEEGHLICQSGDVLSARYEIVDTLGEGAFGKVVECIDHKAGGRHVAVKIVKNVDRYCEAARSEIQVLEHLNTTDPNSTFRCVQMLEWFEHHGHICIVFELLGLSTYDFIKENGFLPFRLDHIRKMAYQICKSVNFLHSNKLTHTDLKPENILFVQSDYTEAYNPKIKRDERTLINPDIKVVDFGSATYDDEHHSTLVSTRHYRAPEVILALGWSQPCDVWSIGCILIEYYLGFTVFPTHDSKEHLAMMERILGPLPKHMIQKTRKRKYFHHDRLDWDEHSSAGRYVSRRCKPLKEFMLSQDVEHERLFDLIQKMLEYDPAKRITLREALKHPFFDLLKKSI

[2] = molecular target: T1, Dual specificity protein kinase CLK1; test: Inhibition of human CLK1 using substrate ERMRPRKRQGSVRRRV in presence of [gamma-33P]ATP after 40 mins by scintillation counter method
Target sequence in this assay (P49759 whole entry): as above

[3] = molecular target: Dual specificity protein kinase CLK2 (Homo sapiens, UniProt P49760); test: Inhibition of human CLK2 using YRRAAVPPSPSLSRHSSPHQS(p)EDEEE as substrate in presence of [gamma-33P]ATP after 40 mins by scintillation counter method
Chain of Dual specificity protein kinase CLK2 (P49760 whole entry): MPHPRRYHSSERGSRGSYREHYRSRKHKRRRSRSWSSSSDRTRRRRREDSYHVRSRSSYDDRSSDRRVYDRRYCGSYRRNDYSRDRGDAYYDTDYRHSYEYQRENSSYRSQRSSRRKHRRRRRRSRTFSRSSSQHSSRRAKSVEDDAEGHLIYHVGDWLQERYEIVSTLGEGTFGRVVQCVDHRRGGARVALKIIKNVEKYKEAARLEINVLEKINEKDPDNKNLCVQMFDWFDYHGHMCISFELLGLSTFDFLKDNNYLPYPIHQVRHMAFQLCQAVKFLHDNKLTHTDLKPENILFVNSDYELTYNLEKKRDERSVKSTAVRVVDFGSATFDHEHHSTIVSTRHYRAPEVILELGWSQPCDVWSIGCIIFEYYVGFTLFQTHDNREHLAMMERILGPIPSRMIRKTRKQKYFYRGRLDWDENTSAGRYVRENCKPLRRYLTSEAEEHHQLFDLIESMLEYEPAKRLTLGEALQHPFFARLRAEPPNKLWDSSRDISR

[4] = molecular target: Dual specificity protein kinase CLK4 (Homo sapiens, UniProt Q9HAZ1); test: Inhibition of human CLK4 using YRRAAVPPSPSLSRHSSPHQS(p)EDEEE as substrate in presence of [gamma-33P]ATP after 40 mins by scintillation counter method
Chain of Dual specificity protein kinase CLK4 (Q9HAZ1 whole entry): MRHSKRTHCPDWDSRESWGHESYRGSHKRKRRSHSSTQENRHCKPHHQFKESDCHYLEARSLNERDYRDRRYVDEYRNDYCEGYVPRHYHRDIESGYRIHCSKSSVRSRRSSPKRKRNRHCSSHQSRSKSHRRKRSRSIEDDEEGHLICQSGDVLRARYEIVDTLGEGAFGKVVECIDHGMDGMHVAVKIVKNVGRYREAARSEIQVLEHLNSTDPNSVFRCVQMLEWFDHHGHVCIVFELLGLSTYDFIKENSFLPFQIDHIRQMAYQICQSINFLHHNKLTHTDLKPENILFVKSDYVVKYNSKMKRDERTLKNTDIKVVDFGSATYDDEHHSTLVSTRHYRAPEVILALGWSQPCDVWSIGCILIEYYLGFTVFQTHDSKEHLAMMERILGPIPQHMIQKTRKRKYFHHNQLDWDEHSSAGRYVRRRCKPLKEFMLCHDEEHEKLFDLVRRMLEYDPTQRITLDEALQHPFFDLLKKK

[5] = molecular target: CDK4/Cyclin D3 (Homo sapiens, UniProt P11802); test: (§1) Inhibition of human CDK4/cyclinD3 using Histone H1 as substrate in presence of [gamma-33P]ATP after 40 mins by scintillation counter method; assay type: protein-complex assay
Chain of CDK4/Cyclin D3 (Homo sapiens, UniProt P11802) (P11802 whole entry): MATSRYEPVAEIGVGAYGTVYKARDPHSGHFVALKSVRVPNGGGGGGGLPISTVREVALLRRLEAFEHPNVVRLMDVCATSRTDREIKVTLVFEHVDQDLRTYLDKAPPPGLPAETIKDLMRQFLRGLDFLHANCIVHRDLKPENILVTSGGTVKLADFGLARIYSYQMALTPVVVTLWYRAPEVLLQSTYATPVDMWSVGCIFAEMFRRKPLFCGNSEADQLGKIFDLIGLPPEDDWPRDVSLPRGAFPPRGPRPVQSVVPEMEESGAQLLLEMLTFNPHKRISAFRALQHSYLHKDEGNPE
Chain of CDK4/Cyclin D3 (Homo sapiens, UniProt P11802) (P30281 whole entry, further chain): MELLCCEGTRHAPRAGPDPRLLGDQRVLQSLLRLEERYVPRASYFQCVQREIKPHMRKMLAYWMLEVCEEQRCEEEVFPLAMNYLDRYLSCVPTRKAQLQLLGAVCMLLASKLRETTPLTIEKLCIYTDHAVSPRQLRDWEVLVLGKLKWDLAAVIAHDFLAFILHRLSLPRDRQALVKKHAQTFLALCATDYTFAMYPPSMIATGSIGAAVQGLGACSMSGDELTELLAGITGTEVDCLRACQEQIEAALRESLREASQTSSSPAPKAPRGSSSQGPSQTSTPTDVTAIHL

[6] = molecular target: T1, Dual specificity protein kinase CLK1; test: Inhibition of CLK mediated SF3B1 activation in human SK-MEL-2 cells assessed as MDM2-pre mRNA exon skipping at 10 uM after 4 hrs by luciferase reporter gene assay relative to control; assay type: cell-based; design: Activity: scale not given: the % may be the effect or the level left
Target sequence in this assay (P49759 whole entry, looked up): as the sequence (P49759 whole entry) above

[7] = molecular target: Dual specificity protein kinase CLK3 (Homo sapiens, UniProt P49761); test: Inhibition of human CLK3 using ERMRPRKRQGSVRRRV as substrate in presence of [gamma-33P]ATP after 40 mins by scintillation counter method
Chain of Dual specificity protein kinase CLK3 (P49761 whole entry): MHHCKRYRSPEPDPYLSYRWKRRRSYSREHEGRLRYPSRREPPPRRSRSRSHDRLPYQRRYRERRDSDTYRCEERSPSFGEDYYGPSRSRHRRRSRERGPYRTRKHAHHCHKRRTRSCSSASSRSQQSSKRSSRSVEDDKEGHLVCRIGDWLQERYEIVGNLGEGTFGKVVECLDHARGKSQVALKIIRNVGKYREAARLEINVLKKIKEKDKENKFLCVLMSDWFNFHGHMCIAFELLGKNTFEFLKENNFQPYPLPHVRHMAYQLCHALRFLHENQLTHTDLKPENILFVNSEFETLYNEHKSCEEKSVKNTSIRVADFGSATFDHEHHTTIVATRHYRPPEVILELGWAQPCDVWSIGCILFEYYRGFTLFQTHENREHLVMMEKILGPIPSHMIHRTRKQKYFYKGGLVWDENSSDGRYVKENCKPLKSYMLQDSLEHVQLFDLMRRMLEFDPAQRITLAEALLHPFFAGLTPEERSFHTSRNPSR

[8] = molecular target: Cyclin-dependent kinase 1/cyclin B1 (Homo sapiens, UniProt P06493); test: Inhibition of human CDK1/cyclinB using Histone H1 as substrate in presence of [gamma-33P]ATP after 40 mins by scintillation counter method; assay type: protein-complex assay
Chain of Cyclin-dependent kinase 1/cyclin B1 (P06493 whole entry): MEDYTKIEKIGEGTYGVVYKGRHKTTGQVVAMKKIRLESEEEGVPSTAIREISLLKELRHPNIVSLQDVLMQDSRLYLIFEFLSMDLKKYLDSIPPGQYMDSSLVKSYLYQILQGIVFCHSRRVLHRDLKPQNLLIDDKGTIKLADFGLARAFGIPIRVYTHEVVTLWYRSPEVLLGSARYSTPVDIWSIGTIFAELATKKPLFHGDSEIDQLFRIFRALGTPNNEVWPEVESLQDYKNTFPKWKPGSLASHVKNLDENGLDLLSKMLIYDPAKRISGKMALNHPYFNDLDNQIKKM
Chain of Cyclin-dependent kinase 1/cyclin B1 (P14635 whole entry, further chain): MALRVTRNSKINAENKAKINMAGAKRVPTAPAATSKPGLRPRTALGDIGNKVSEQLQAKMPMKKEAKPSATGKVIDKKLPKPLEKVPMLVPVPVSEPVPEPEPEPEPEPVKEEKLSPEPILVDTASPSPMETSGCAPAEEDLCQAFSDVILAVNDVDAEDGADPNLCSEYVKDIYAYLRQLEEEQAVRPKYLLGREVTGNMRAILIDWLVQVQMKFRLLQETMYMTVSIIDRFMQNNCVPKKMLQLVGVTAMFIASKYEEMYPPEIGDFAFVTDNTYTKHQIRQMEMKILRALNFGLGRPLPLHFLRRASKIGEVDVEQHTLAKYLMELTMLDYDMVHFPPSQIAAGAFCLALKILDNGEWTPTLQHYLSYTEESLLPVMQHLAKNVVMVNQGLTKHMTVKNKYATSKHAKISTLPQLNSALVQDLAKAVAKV

[9] = molecular target: CDK4/Cyclin D3 (Homo sapiens, UniProt P11802+P30281); test: as §1; assay type: protein-complex assay
Chain of CDK4/Cyclin D3 (Homo sapiens, UniProt P11802+P30281) (P11802 whole entry): as the sequence (P11802 whole entry) above
Chain of CDK4/Cyclin D3 (Homo sapiens, UniProt P11802+P30281) (P30281 whole entry): as the sequence (P30281 whole entry, further chain) above

[10] = molecular target: CDK6/cyclin D3 (Homo sapiens, UniProt P30281+Q00534); test: (§2) Inhibition of human CDK6/cyclinD3 using Histone H1 as substrate in presence of [gamma-33P]ATP after 40 mins by scintillation counter method; assay type: protein-complex assay
Chain of CDK6/cyclin D3 (Homo sapiens, UniProt P30281+Q00534) (P30281 whole entry): as the sequence (P30281 whole entry, further chain) above
Chain of CDK6/cyclin D3 (Homo sapiens, UniProt P30281+Q00534) (Q00534 whole entry): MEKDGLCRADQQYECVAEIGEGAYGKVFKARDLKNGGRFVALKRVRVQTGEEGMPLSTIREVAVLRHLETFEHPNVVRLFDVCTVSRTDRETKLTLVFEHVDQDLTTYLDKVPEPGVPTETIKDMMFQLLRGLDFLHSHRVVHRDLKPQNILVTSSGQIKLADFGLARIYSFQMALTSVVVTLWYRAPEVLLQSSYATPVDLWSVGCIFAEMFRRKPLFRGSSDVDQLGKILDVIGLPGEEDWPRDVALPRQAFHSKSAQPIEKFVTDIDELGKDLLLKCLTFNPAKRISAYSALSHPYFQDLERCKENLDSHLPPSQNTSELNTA

[11] = molecular target: CDK6/cyclin D3 (Homo sapiens, UniProt Q00534); test: as §2; assay type: protein-complex assay
Chain of CDK6/cyclin D3 (Homo sapiens, UniProt Q00534) (P30281 whole entry): as the sequence (P30281 whole entry, further chain) above
Chain of CDK6/cyclin D3 (Homo sapiens, UniProt Q00534) (Q00534 whole entry): as the sequence (Q00534 whole entry) above

[12] = Solubility of the compound; assay type: physicochemical
[13] = molecular target: T1, Dual specificity protein kinase CLK1; test: Inhibition of CLK mediated SF3B1 activation in human HeLa cells assessed as MDM2-pre mRNA exon skipping by luciferase reporter gene assay; assay type: cell-based
Target sequence in this assay (P49759 whole entry): as the sequence (P49759 whole entry) above

[14] = molecular target: T1, Dual specificity protein kinase CLK1; test: Inhibition of CLK mediated SF3B1 activation in human Rh-18 cells assessed as MDM2-pre mRNA exon skipping at 10 uM after 8 hrs by RT-PCR method; assay type: cell-based
Target sequence in this assay (P49759 whole entry, looked up): as the sequence (P49759 whole entry) above

Q: For `CC(C)n1cnc2c(Nc3cc(N)cc(Cl)c3)nc(N[C@@H]3CCCC[C@H]3N)nc21`, which EC50 ([1]; read-out: EC50) is on record?
A: Its EC50 is 9.7 µM.

Q: For `CC(=O)Nc1cc(Cl)cc(Nc2nc(N[C@@H]3CCCC[C@@H]3N)nc3c2ncn3C(C)C)c1` (racemic) [listing 1 of 2 here], which EC50 ([1]; read-out: EC50) is on record?
A: The EC50 was 8.1 µM.

Q: And the IC50 [2]?
A: The IC50 was 0.019 µM.

Q: And the IC50 [3]?
A: The IC50 was 0.013 µM.

Q: And the IC50 [4]?
A: Its IC50 is 0.064 µM.

Q: What about the IC50 [5] of the same compound?
A: The IC50 was 0.93 µM.

Q: Which fold change (FC) [6] does the source give for `CC(=O)Nc1cc(Cl)cc(Nc2nc(N[C@@H]3CCCC[C@@H]3N)nc3c2ncn3C(C)C)c1` (racemic) [listing 2 of 2 here] here?
A: Its fold change (FC) is greater than 3.

Q: With `COc1ccc2c(c1)/C(=C/c1cnc[nH]1)C(=O)N2` as the compound, how does the Activity [6] read?
A: Its Activity is 53%.

Q: Which results are given for `CCn1cnc2c(Nc3cccc(Cl)c3)nc(N[C@@H]3CCCC[C@@H]3NC(C)=O)nc21` (racemic)?
A: EC50 [1]: Not Active; IC50 [2]: > 1 µM

Q: For `CC(C)n1cnc2c(Nc3cccc(Cl)c3)nc(N[C@@H]3CCCC[C@H]3N)nc21`, which EC50 ([1]; read-out: EC50) is on record?
A: The EC50 was 4.5 µM.

Q: What about the fold change (FC) [6] of the same compound?
A: Its fold change (FC) is greater than 3.

Q: For `COc1ccc2c(C)nc(Nc3nc(C)c(C)c(O)n3)nc2c1`, which inhibition [6] is on record?
A: The inhibition was “inactive”.

Q: For `CC(C)n1cnc2c(Nc3cc(N)cc(Cl)c3)nc(N[C@H]3CCCNC3)nc21`, which EC50 ([1]; read-out: EC50) is on record?
A: Its EC50 is 12.9 µM.

Q: For `CCn1cnc2c(Nc3cccc(Cl)c3)nc(N[C@H]3CCCC[C@@H]3N)nc21`, which EC50 ([1]; read-out: EC50) is on record?
A: Its EC50 is 22 µM.

Q: What about the fold change (FC) [6] of the same compound?
A: Its fold change (FC) is greater than 3.

Q: What does the source list for `CC(C)n1cnc2c(Nc3cc(N)cc(Cl)c3)nc(N[C@@H]3CCCC[C@@H]3N)nc21`?
A: EC50 ([1]; read-out: EC50): 3 µM; IC50 [7]: > 1 µM; IC50 [8]: 0.532 µM; IC50 [9]: > 1 µM; IC50 [10]: > 1 µM

Q: Which results are given for `CC(C)n1cnc2c(Nc3cc(N)cc(Cl)c3)nc(N[C@@H]3CCCC[C@@H]3N)nc21` (racemic)?
A: EC50 ([1]; read-out: EC50): 6.5 µM; IC50 [2]: 0.018 µM; IC50 [3]: 0.016 µM; IC50 [7]: > 1 µM; IC50 [4]: 0.054 µM; IC50 [8]: 0.973 µM; IC50 [5]: > 1 µM; IC50 [11]: > 1 µM

Q: For `COCCNc1nc(Nc2cccc(Cl)c2)c2ncn(C(C)C)c2n1`, which EC50 [1] is on record?
A: The EC50 was “Not Active”.

Q: What about the solubility [12] of the same compound?
A: The solubility was “Insoluble”.

Q: With `COC(=O)c1c(/C(C#N)=C\N)c2ccc(Cl)c(Cl)c2n1C` as the compound, how does the EC50 ([1]; read-out: EC50) read?
A: Its EC50 is 8 µM.

Q: What about the inhibition [6] of the same compound?
A: Its inhibition is “Active”.

Q: Which EC50 ([1]; read-out: EC50) does the source give for `CC(C)n1cnc2c(Nc3cc(N)cc(Cl)c3)nc(N[C@H]3CCCC[C@@H]3N)nc21` here?
A: Its EC50 is 23.5 µM.

Q: With `CC1=Nc2ccc(Cl)cc2S(=O)(=O)N1` as the compound, how does the Activity [6] read?
A: Its Activity is 11%.

Q: Which results are given for `CC(C)n1ccc2c(Nc3cccc(Cl)c3)nc(N[C@H]3CCCC[C@H]3N)nc21` (racemic)?
A: IC50 [2]: > 1 µM; inhibition [6]: inactive

Q: Which EC50 ([1]; read-out: EC50) does the source give for `CC(C)n1cnc2c(Nc3cc(N)cc(Cl)c3)nc(N[C@H]3CCCC[C@H]3N)nc21` here?
A: Its EC50 is 18.7 µM.

Q: For `CC(C)n1cnc2c(Nc3cc(N)cc(Cl)c3)nc(N[C@@H]3CCCNC3)nc21`, which EC50 ([1]; read-out: EC50) is on record?
A: The EC50 was 14 µM.

Q: Which EC50 [13] does the source give for `COc1ccc2c(C)nc(Nc3nc(C)c(C)c(=O)[nH]3)nc2c1` here?
A: The EC50 was 20 µM.

Q: Which Activity [6] does the source give for `Clc1cccc(Nc2nnc(-c3ccccc3)c3ccccc23)c1` here?
A: The Activity was 11%.

Q: With `CC(/C=C/[C@@H]1C[C@]2(CO2)CC(C)(C)O1)=C\C[C@H]1CC[C@@H](NC(=O)/C=C\[C@H](C)OC(=O)N(C)C)CC1` as the compound, how does the inhibition [6] read?
A: The inhibition was “Active”.

Q: For `CCN1/C(=C/C(C)=O)Sc2ccc(Cl)cc21`, which inhibition [6] is on record?
A: The inhibition was “inactive”.

Q: For `CC(C)n1cnc2c(Nc3cc(N)cc(Cl)c3)nc(N[C@@H]3CCNC3)nc21`, which EC50 ([1]; read-out: EC50) is on record?
A: The EC50 was 26.4 µM.

Q: For `C#CCCCCCCCCCCC(=O)CC(O)COC(C)=O` (centres undefined), which Activity [6] is on record?
A: The Activity was 14%.

Q: With `CC(=O)Oc1ccc(/C=C/c2cc(OC(C)=O)cc(OC(C)=O)c2)cc1` as the compound, how does the Activity [6] read?
A: Its Activity is 17%.

Q: For `CC(C)[C@H](CO)Nc1nc(Nc2cc(N)cc(Cl)c2)c2ncn(C(C)C)c2n1` [AMINOPURVALANOL], which EC50 ([1]; read-out: EC50) is on record?
A: Its EC50 is 12 µM.

Q: And the inhibition [14]?
A: The inhibition was “Active”.

Q: For `CC(C)n1cnc2c(Nc3cc(N)cc(Cl)c3)nc(N[C@H]3CCNC3)nc21`, which EC50 ([1]; read-out: EC50) is on record?
A: The EC50 was 12 µM.

Q: Which EC50 ([1]; read-out: EC50) does the source give for `CC(=O)Nc1cc(Cl)cc(Nc2nc(N[C@H]3CCCC[C@H]3N)nc3c2ncn3C(C)C)c1` here?
A: The EC50 was 17.5 µM.

Q: Which EC50 ([1]; read-out: EC50) does the source give for `CCn1cnc2c(Nc3cccc(Cl)c3)nc(N[C@@H]3CCCC[C@@H]3N)nc21` (racemic) here?
A: Its EC50 is 4.2 µM.

Q: And the inhibition [14]?
A: The inhibition was “Active”.

Q: What about the IC50 [2] of the same compound?
A: The IC50 was 0.148 µM.

Q: What about the IC50 [3] of the same compound?
A: Its IC50 is 0.111 µM.

Q: And the IC50 [7]?
A: The IC50 was greater than 1 µM.

Q: And the IC50 [4]?
A: The IC50 was 0.104 µM.

Q: What about the IC50 [8] of the same compound?
A: The IC50 was 0.382 µM.

Q: And the IC50 [5]?
A: Its IC50 is 0.573 µM.

Q: And the IC50 [11]?
A: The IC50 was greater than 1 µM.

Q: What about the fold change (FC) [6] of the same compound?
A: The fold change (FC) was greater than 3.

Q: For `CNC(=O)O[C@@H](C)/C=C\C(=O)N[C@H]1CC[C@@H](C/C=C(C)/C=C/[C@@H]2C[C@]3(CO3)CC(C)(C)O2)CC1`, which EC50 ([1]; read-out: EC50) is on record?
A: Its EC50 is 0.8 µM.

Q: Which results are given for `CCn1cnc2c(Nc3cccc(Cl)c3)nc(N[C@@H]3CCCC[C@H]3N)nc21`?
A: EC50 ([1]; read-out: EC50): 7.8 µM; fold change (FC) [6]: > 3

Q: For `O=C(O)COc1ccc(Cl)cc1Cl`, which Activity [6] is on record?
A: The Activity was 21%.

Q: For `CC(C)n1cnc2c(Nc3cccc(Cl)c3)nc(N[C@H]3CCCC[C@H]3N)nc21`, which EC50 ([1]; read-out: EC50) is on record?
A: The EC50 was 12.2 µM.

Q: And the fold change (FC) [6]?
A: The fold change (FC) was greater than 3.

Q: With `CC(=O)Nc1cc(Cl)cc(Nc2nc(N[C@@H]3CCCC[C@@H]3N)nc3c2ncn3C(C)C)c1` as the compound, how does the EC50 ([1]; read-out: EC50) read?
A: Its EC50 is 7.3 µM.

Q: And the IC50 [8]?
A: Its IC50 is greater than 1 µM.

Q: What about the IC50 [11] of the same compound?
A: Its IC50 is greater than 1 µM.
